Test results as given in US4661596A, “Quinolinyl (or pyridinyl) methoxy substituted naphthalene compounds as antiallergic agents” (American Home Products Corporation, priority 1985, dated 1987).

What was measured:
[1] = system: LTD4 induced bronchoconstriction; assay: in vivo inhibition of LTD4-induced bronchospasm in guinea pigs; design: species or system guinea pig (male Hartley); settings: 50 mg/kg intraduodenal; 10 minutes before induction of bronchospasm by LTD4; average of 6 experiments
[2] = system: synthesis of 5-HETE by rat glycogen-elicited polymorphonuclear leukocytes; assay: inhibition of 5-HETE synthesis by rat glycogen-elicited polymorphonuclear leukocytes; assay type: cell-based, rat (female Wistar); settings: Leukocyte; 50 μM unless otherwise stated; rat PMN, A23187 (10 μM) and [14C] arachidonic acid, 10 minutes preincubation
Description: This is especially true with respect to 5,12-diHETE, which is also denoted as LTB4 [see Ford-Hitchinson, J. Roy. Soc. Med., 74, 831 (1981)]. The assay of this Example measures the ability of the compounds of the invention to inhibit the synthesis of 5-HETE by rat glycogen-elicited polymorphonuclear leukocytes.
The array is carried out as follows:
Peritoneal PMN are obtained from female Wistar rats (150-250 g) that received an i.p. injection of 6% glycogen (10 mL). After 24 hours, rats are killed by CO2 asphyxiation and peritoneal cells are harvested by peritoneal lavage using Ca^++ and Mg^++ free Hanks' balanced salt solution (HBSS). The peritoneal exudate is centrifuged at 400 g for 10 minutes. After centrifugation, the lavaged fluid is removed and the cell pellet is resuspended in HBSS containing Ca^++ and Mg^++ and 10 mM L-cysteine at a concentration of 2×10^7 cells/mL. To 1 mL portions of cell suspension, test drugs or vehicle are added and incubated at 37° C. for 10 minutes. Following this preincubation, the calcium ionophore (10 μM), A23187, is added together with 0.5 μCi [^14 C] arachidonic acid and further incubated for 10 minutes. The reaction is stopped by the addition of ice cold water (3 mL) and acidifying to pH 3.5. Lipoxygenase products are then extracted twice into diethyl ether. The pooled ether extracts are evaporated to dryness under nitrogen and the residue is redissolved in a small volume of methanol and spotted on aluminum backed pre-coated thin layer chromatographic plates. The samples are then co-chromatographed with authentic reference 5-HETE in the solvent system-hexane:ether:acetic acid (50:50:3). After chromatography, the areas associated with 5-HETE standard are identified by autoradiography, cut out and quantitated by liquid scintillation.
Results are expressed as % inhibition of [^14 C]5-HETE synthesis. [formula]
Testing compounds of the invention in this assay the following results are obtained, where the concentration of the compounds tested is 50 μM unless otherwise stated.

| Structure (SMILES) | % Inhibition (Statistical Average) Overflow Volume at 5 min. [1] [%] | inhibition at 50 µM [2] [%] |
| --- | --- | --- |
| OC1CCCc2ccc(OCc3ccc4ccccc4n3)cc21 (stereo not shown) [Example 1, 1,2,3,4-Tetrahydro-7-(2-quinolinylmethoxy)-1-naphthalenol] | 56.1 | > 50 |
| Oc1ccc2ccc(OCc3ccc4ccccc4n3)cc2c1 [Example 2, 7-(2-quinolinylmethoxy)-2-naphthalenol] | – | > 50 |
| COc1ccc2ccc(OCc3ccc4ccccc4n3)cc2c1 [Example 3, 2-[[(7-methoxy-2-naphthalenyl)oxy]methyl]quinoline] | – | > 50 |
| Oc1ccc2ccc(OCc3nc4ccccc4s3)cc2c1 [Example 4, 7-(2-benzothiazolylmethoxy)-2-naphthalenol] | – | > 50 |
| Oc1ccc2ccc(OCc3ccccn3)cc2c1 [Example 5, 7-(2-pyridinylmethoxy)-2-naphthalenol] | – | > 50 |
| Nc1cccc2ccc(OCc3ccc4ccccc4n3)cc12 [Example 6, 7-(2-quinolinylmethoxy)-1-naphthalenamine] | – | > 50 |
| Nc1ccc2ccc(OCc3ccc4ccccc4n3)cc2c1 [Example 7, 7-(2-quinolinylmethoxy)-2-naphthalenamine] | 88.7 | > 50 |
| CCS(=O)(=O)Nc1ccc2ccc(OCc3ccc4ccccc4n3)cc2c1 [Example 8, N-[7-(2-quinolinylmethoxy)-2-naphthalenyl]ethane sulfonamide] | 90.6 | > 50 |
| C=C1CCCc2ccc(OCc3ccc4ccccc4n3)cc21 [Example 9, 2-[[(5,6,7,8-tetrahydro-8-methylene-2-naphthalenyl)oxy]methyl]quinoline] | – | > 50 |
| O=S(=O)(Nc1ccc2ccc(OCc3ccc4ccccc4n3)cc2c1)C(F)(F)F [Example 10, N-[7-(2-quinolinylmethoxy)-2-naphthalenyl]trifluoromethane sulfonamide] | 99.0 | – |
